The results in this text go back to patent US20040241184A1, “Fermentation product of cyptoporous volvatus and its preparation method and use” (priority 2001, published 2004).

The subject of test [1] is cavy cough caused by citric acid. The test can be described thus: Cough reverberation of cavy caused by citric acid. The test is classed as in vivo. The following applies: 10 mg · kg^−1, once daily 3 days. Here is the method: Put cavies into a volume marked box to stabilize for 1 min, and then atomize 15% citric acid for 2 min by ultrasonic nebulizer. From then on, select the cavies that cough more than 10 times in minutes. Divide the selected cavies into 5 groups in terms of their cough times, and then treat them respectively with testing medicine sample CVFS 0.3 g/kg, 0.9 g/kg, 2.7 g/kg, positive control codeine phosphate (10 mg/kg), and the negative control group is administered by intragater method with 10 ml·kg^−1 physiological saline solution (i.g), one time every day, altogether 3 days. 1 hour after the last administration of medicine, induce cough by above method and count the cough times in 10 min from the beginning of atomization.

For test [2], the system named is sensitized cavies attacked by antigen (egg albumin). The test can be described thus: Example 4 polysaccharide: inflammatory cells in bronchial lung lavage solution of sensitized cavies after antigen attack (Table 7). The test is classed as in vivo, cavy. The note with it: 0.5 mg/kg. Here is the method: Take 20 g fermentation mycelial powder, add in 400 mL distilled water, boil and extract for 30 min. After filtration, add another 200 mL distilled water to the residue, then repeat the same steps. Mix the filtrate of the two times and add in 100 mL culture supernatant fluid. Then put the mixture into dialysis bag of retention molecular weight 10,000 Dalton and dialyze 10 mM pH6.0 buffer solution of HAc-NaAc 2000 mL for three days to remove small molecular substances in the solution. Change the penetrated liquid 1 time each day.
Then concentrate the residue to 100 mL. On animal test, the polysaccharide affects inflammatory cells in bronchial lung lavage solution of sensitized cavies after being attacked by antigen. (The results are described in Table 7.) 2% egg albumin gel solution is used to cause allergy and is subcutaneous injected (0.05 mL each part) in ten parts of two retral soles, groin, waist, back, neck and armpits of each cavy. 0.5 mL 2% egg albumin gel solution is intraperitoneal injected at the same time. The samples are injected since the tenth day after allergy has been caused.

Test [3] has the same test system. The test can be described thus: Inflammatory cells in bronchial lung lavage solution of sensitized cavies after antigen attack (Table 3). The note with it: 0.5 mg/kg Ip, 10 days. Format: in vivo, cavy. Here is the method: 2% egg albumin gel solution is used to cause allergy and is subcutaneously injected (0.05 mL each part) in ten parts of two retral soles, groin, waist, back, neck and armpits of each cavy. 0.5 mL 2% egg albumin gel solution is intraperitoneally injected at the same time. The medicine samples are injected since the tenth day after allergy has been caused. The testing samples of A2, B2, C2 or physiological saline solution (NS, 0.5 mL/kg) or dexamethasone (DXM, […]) are intraperitoneal injected respectively; A1, B1 (5 g/kg), C1 (2.5 g/kg) are administered by intragaster. The above testing samples are administered 10 days. A1: fermentation mycelium powder; […]: culture supernatant concentrated fluid; C1: sporophore powder; A2: water extract of fermentation mycelium; B2: fermentation concentrated fluid; C2: water extract of sporophore powder; dexamethasone sodium phosphate. Asthma as a chronic airway inflammatory disease is characterized by significant increase of eosinophils of bronchus and lung. Eosinophils can release tens of inflammatory substances, such as cytokines, leukotriene and prostapar etc., which may cause inflammation, edema, injury and thickening of airway, make narrow airway and therefore lead to dyspnea. Thus, eosinophil is considered as a target of screening drugs for relieving cough at present. The medicine, which can inhibit inflammation of airway eosinophils, would probably be used for preventing and treating asthma.

For test [4] the test system is unchanged. The test can be described thus: Elementarily separated substances: inflammatory cells in bronchial lung lavage solution of sensitized cavies after antigen attack (Table 5). Format: in vivo, cavy. The note with it: 0.5 mg/kg intraperitoneal, 10 days. Here is the method: 2% egg albumin gel solution is used to cause allergy. The medicine samples are administered since the tenth day after allergy has been caused. The cavies are administered by introgaster method with this tested medicine sample or with physiological saline solution (10 ml/kg); or administered by intraperitoneal method with dexamethasone (0.5 mg/kg). All of the testing medicine samples are administered 10 days. A: total polysaccharide extracted from fermentation product; B: total alkaloids extracted from fermentation product; C: volatile oil extracted from fermentation product; D: organic acid extracted from fermentation product; E: water extract of fermentation product; positive control: dexamethasone.

In test [5] the test system is sensitized cavies attacked by antigen (1% egg albumin). The test can be described thus: Pulmonary mechanical function (lung resistance RL) of sensitized cavies after antigen attack. Format: in vivo, cavy. The note with it: 7 mg/kg×1 d; P<0.05˜0.01 in all time phases during 10 min after antigen attack.
Procedure: Suppose airway resistance (RL) is 1005 before being attacked by antigen. Compared with the model group: *P<0.05, **P <0.001, ***P<0.001.
Each cavy is sensitized by being injected 10 mg egg albumin into the muscles of its crus. 3-4 weeks later, antigen attack (1% egg albumin) is given and the caused changes of lung resistance (RL) are observed to evaluate the activity of the samples.

Take `COc1ccc2c3c1O[C@H]1[C@@H](O)C=C[C@H]4[C@@H](C2)N(C)CC[C@@]341` [Codeine phosphate, codeine phosphate]: in test [1], the “Cough times (in 10 min)” value is reported as 9.4 ± 8.0 and the “Inhibition of cough times %” value was 67.4%.
As for `C[C@@H]1C[C@H]2[C@@H]3CCC4=CC(=O)C=C[C@]4(C)[C@@]3(F)[C@@H](O)C[C@]2(C)[C@@]1(O)C(=O)CO` [DXM, dexamethasone], in test [2], the Eosinophil came to 0.00 ± 0.00 %, the Leukocyte counts stood at 330.5 ± 254.3 Number/mm3, the Lymphocyte is given as 87.70 ± 18.73 % and the Neutrophil is 12.30 ± 18.74%. Moreover, in test [3], the Eosinophils was 2.60 ± 3.9 %, the Leukocyte total number worked out at 241.6 ± 179.2 Number/mm^3, the Lymphocyte is 68.4 ± 18.4 % and the Neutrophil is 28.9 ± 16.6%. Further, in test [4], the Eosinophils is recorded as 0.00 ± 0.00 %, the “Leukocyte total number” value was 330.5 ± 254.3 Number/mm3, the Lymphocyte is 87.70 ± 18.73 % and the Neutrophil turned out to be 12.30 ± 18.74%.
For `CC(C)(C)NCC(O)c1ccc(O)c(CO)c1` (stereo not drawn) [salbutamol], the “inhibition of increase of lung resistance (RL) caused by antigen attack” value in test [5] was “evident inhibition”.
